Laboratory results taken from patent US4950686A, “Anti-mycoplasma agent” (Shionogi & Co., Ltd., priority 1986, dated 1990).
In brackets after ≈: the same amount, converted by molar mass. Where a name gives a salt, the structure may show the parent alone. Read-outs that look alike come from different tables or passages of the source.

Columns and labels:
[1] = system: Mycoplasma hyopneumoniae ST-11 (standard strain); test: Anti-mycoplasma activity in vitro (MIC, broth dilution), strain ST-11; assay type: cell-based; details: Mh ST-11
Experimental: (§1) (1) Anti-mycoplasma activity test in vitro
(§2) MIC values of each of Tropolones were measured on the following strains according to the following method.
(b) Mycoplasma hyopneumoniae
Strain: ST-11 (standard strain)
Medium: 850 ml of Hanks' solution supplemented with 0.5% lactoalbumin, 50 ml of 25% yeast, 100 ml of equine serum and 4-6 ml of 0.5% phenol red (pH 7.4-7.6)
(§3) Method: Broth dilution method
Inoculum: Culture which is incubated for 3-4 days and diluted 10 times with the broth if color of the broth becomes yellow then. If it needs over 4 days until color of the broth becomes yellow, it is further subcultured. This is diluted 10 times with the broth to give inoculum.
Assay is done in the same manner as in the above (a).

[2] = system: Mycoplasma gallisepticum S6 (standard strain); test: Anti-mycoplasma activity in vitro (MIC, broth dilution), strain S6; assay type: cell-based; details: Mg S6, 37° C., 7 days
Experimental: as §1, §2
(§4) (a) Mycoplasma gallisepticum
(§5) Medium: Chick PPLO broth supplemented with 20% equine serum (Eiken Kagaku Co., Ltd.)
as §3
(§6) Inoculum: Culture incubated at 37° C. for 24-48 hr which is diluted with broth to 10^6 CCU/ml immediately before the use.
(§7) To 1.6 ml of the broth is added 0.2 ml of an agent which has been subjected to 2-fold dilution and then added 0.2 ml of inoculum, which is incubated at 37° C. for 7 days.

[3] = system: Mycoplasma gallisepticum MR-1 (wild strain, tylosin-resistant); test: Anti-mycoplasma activity in vitro (MIC, broth dilution), strain MR-1; assay type: cell-based; details: Mg MR-1, 37° C., 7 days
Experimental: as §1, §2, §4
MR-1 (wild strain, tylosin-resistant)
as §5, §3, §6, §7

[4] = system: Mycoplasma gallisepticum T-7-T (wild strain, tylosin-resistant); test: Anti-mycoplasma activity in vitro (MIC, broth dilution), strain T-7-T; assay type: cell-based; details: Mg T-7-T, 37° C., 7 days
Experimental: as §1, §2, §4
T-7-T (wild strain, tylosin-resistant)
as §5, §3, §6, §7

[5] = system: Mycoplasma gallisepticum S6 (standard strain); test: Mycoplasma gallisepticum air-sac infection method in chicken, strain S6; assay type: in vivo, Mycoplasma gallisepticum; SPF chicken (white leghorn); details: 200 mg/kg × once oral, 20 mg/ml sol. c; for Index of Isolation: inoculum 6.3 × 10^4, trachea ND, range 0-6.0
Experimental: (2) Test of Effectiveness Mycoplasma gallisepticum air-sac infection method
Inoculation: To the right air-sac of 9 days old SPF chicken (a white leghorn) which has abstained from water and feed one day before is inoculated 0.20-0.25 ml/chicken of fresh mycoplasma culture incubated for 24-48 hr and diluted with broth (usually 100 times). The concentration in Table 2 is shown in a unit of mg/ml.
Medium: Chick PPLO broth supplemented with 15% equine serum (Eiken Kagaku Co., Ltd.)
Administration: A compound of this invention dissolved or suspended in the following solution is orally and forcibly administered once by a cannula immediately after the infection.
Anatomization and Isolation of Microorganism: The chickens are anatomized 5 days after the infection, and the right and left air sacs are investigated whether they are attacked with a disease or not. The change caused by the disease is represented in four degrees; -: no change, +: slight, ++: medium and +++: serious. Microorganism is isolated from the right and left air-sacs and the trachea by using a sterilized applicator.
Judgement: Judgement is done through an index of an air-sac disease and an index of a microorganism-isolation.
Index of an air-sac-disease: First, indexes in the right and left air-sacs are separately calculated according to the following formula;
{degree of disease (0-3)×chickens}/anatomized chickens
and the index is calculated by the following formula;
(index of right air-sac)×1+(index of left air-sac)×2
Index of a microorganism isolation:
P: chickens from the right air-sac of which microorganism is isolated,
Q: chickens from the trachea of which microorganism is isolated,
R: chickens from the left air-sac of which microorganism is isolated, and
S: chickens investigated.

[6] = inoculum 6.3 × 10^4, calcium salt
[7] = Mesomycoplasma hyopneumoniae, read-out: MIC
[8] = Mycoplasmoides gallisepticum, 168 h, read-out: MIC

| Structure (SMILES) | MIC [2] [µg/mL] | MIC [3] [µg/mL] | Change of air-sac, left: + (chickens) ([5]; inoculum 6.3 × 10^4) | Change of air-sac, left: ++ (chickens) ([5]; inoculum 6.3 × 10^4) | Change of air-sac, left: +++ (chickens) ([5]; inoculum 6.3 × 10^4) | Change of air-sac, left: - (chickens) ([5]; inoculum 6.3 × 10^4) | Change of air-sac, right: ++ (chickens) ([5]; inoculum 6.3 × 10^4) | Change of air-sac, right: +++ (chickens) ([5]; inoculum 6.3 × 10^4) | Isolation, L (left air-sac) ([5]; inoculum 6.3 × 10^4) | Isolation, R (right air-sac) ([5]; inoculum 6.3 × 10^4) | Mycoplasma Isolated Chickens ([5]; inoculum 6.3 × 10^4) | Index of Isolation [5] | MIC [1, 7] [µg/mL] | MIC [2, 8] [µg/mL] | other results |
| --- | --- | --- | --- | --- | --- | --- | --- | --- | --- | --- | --- | --- | --- | --- | --- |
| O=c1cccccc1O.O=c1cccccc1O.[Cu] [Compound 2, Tropolone copper complex] | 3.13 | 3.13 | – | – | – | – | – | – | – | – | – | – | – | – | MIC [1]: 0.78 µg/mL; MIC [4]: 3.13 µg/mL |
| O=c1cccccc1O [Compound 5, Tropolone calcium salt] | – | – | 0 | 0 | 0 | 5 | 0 | 0 | 0 | 1 | 1 | 0.2 | – | – | MIC ([2]; calcium salt): 3.13 µg/mL; Change of air-sac, right: + (chickens) [5, 6]: 0; Change of air-sac, right: - (chickens) [5, 6]: 5; Index of Disease ([5]; inoculum 6.3 × 10^4, range 0-9.0, calcium salt): 0; MIC ([3]; calcium salt): 1.56 µg/mL |
| O=c1cccccc1O [Compound 9, Tropolone ethanolamine salt] | 3.13 | 3.13 | 0 | 0 | 0 | 5 | 0 | 0 | 0 | 1 | 1 | 0.2 | – | – | Change of air-sac, right: + (chickens) ([5]; inoculum 6.3 × 10^4): 1; Change of air-sac, right: - (chickens) ([5]; inoculum 6.3 × 10^4): 4; Index of Disease ([5]; inoculum 6.3 × 10^4, range 0-9.0): 0.2 |
| Cc1ccc(S(=O)(=O)Oc2cccccc2=O)cc1 [Compound 16, O-(p-Toluensulfonyl)tropolone] | – | – | – | – | – | – | – | – | – | – | – | – | 6.25 (≈ 22.6 µM) | 3.13 (≈ 11.3 µM) | – |
| CC(Oc1cccccc1=O)C(=O)O (centres unmarked) [Compound 17, O-(1-Carboxyethyl)tropolone] | – | – | – | – | – | – | – | – | – | – | – | – | > 25 | > 25 | – |
